The values that follow come from patent US10429397B2 (priority 2015, dated 2019).

In this data set the test system is HeLa cells. Description: Fluorescence microscopy assay of cell permeability. The format is cell-based. The conditions noted are these: 5 mM, 1 hour, streptavidin-Cy5. The procedure: The cells were then incubated in serum free media for 2 hours, followed by incubation with APB (5 mM) in serum free media (500 μL) for 1 hour. […] Cells were incubate with paraformaldehyde (4%, 500 μL) for 20 minutes at room temperature, then washed with 1×PBS (500 μL) three times. […] Streptavidin Cy5 (10 ug/mL) in blocking buffer (50 μL) was added and incubated with cells for 30 minutes. […] Cells were incubated with DAPI (100 μg/mL) for 5 minutes, followed by washing with 1×PBS (500 μL) 3 times each for 5 min. The cover slips were washed in water then installed on a glass slide containing Mowiol mounting solution (50 μL, Sigma Aldrich) saturated with DABCO (Sigma Aldrich). The slide was incubate at 31° C. for 30 minutes, and then kept at 4° C. until microscopy. Fluorescence photos were generated on an Olympus fluorescence microscope using laser wavelengths corresponding to DAPI (350 nm) and Cy5 (650 nm). DAPI photos were generated at 10 ms and Cy5 at 200 ms. Merged images were created using Adobe Photoshop.

Take `Nc1ncnc2c1ncn2[C@@H]1O[C@H](COP(=O)(O)OP(=O)(O)OP(=O)(O)O)[C@@H](O)[C@H]1O` [ATP, adenosine-5′-triphosphate, reference compound]: the “biotin fluorescence signal in cells (cell permeability)” value is “no biotin signal”.
